Laboratory results: ChEMBL document CHEMBL4840317, “Saccharochelins A-H, Cytotoxic Amphiphilic Siderophores from the Rare Marine Actinomycete Saccharothrix sp. D09” (J Nat Prod, 2021)
Calls of active or inactive are those of the source. The rule behind the calls is not given here.

What was measured:
[1] = Binding affinity to Fe3+ assessed as formation of Fe3+-compound complex at 5 to 640 uM in presence of FeCl3 incubated for 3 hrs by Chrome Azurol S assay; details: dose 5-640 µM
[2] = Binding affinity to Fe3+ assessed as formation of Fe3+-compound complex coordinate ratio of 1:1 measured under neutral pH by UV-visible spectrophotometric titration analysis
[3] = target: Angiotensin-converting enzyme 2 (Homo sapiens) (UniProt Q9BYF1); assay: Inhibition of ACE2 (unknown origin) upto 100 ug/ml incubated for 15 mins followed by substrate addition by fluorescence based analysis; details: dose microg/ml <=100, time 15.0 min
Sequence of Angiotensin-converting enzyme 2 (Homo sapiens) (Q9BYF1 18-805 limits assumed): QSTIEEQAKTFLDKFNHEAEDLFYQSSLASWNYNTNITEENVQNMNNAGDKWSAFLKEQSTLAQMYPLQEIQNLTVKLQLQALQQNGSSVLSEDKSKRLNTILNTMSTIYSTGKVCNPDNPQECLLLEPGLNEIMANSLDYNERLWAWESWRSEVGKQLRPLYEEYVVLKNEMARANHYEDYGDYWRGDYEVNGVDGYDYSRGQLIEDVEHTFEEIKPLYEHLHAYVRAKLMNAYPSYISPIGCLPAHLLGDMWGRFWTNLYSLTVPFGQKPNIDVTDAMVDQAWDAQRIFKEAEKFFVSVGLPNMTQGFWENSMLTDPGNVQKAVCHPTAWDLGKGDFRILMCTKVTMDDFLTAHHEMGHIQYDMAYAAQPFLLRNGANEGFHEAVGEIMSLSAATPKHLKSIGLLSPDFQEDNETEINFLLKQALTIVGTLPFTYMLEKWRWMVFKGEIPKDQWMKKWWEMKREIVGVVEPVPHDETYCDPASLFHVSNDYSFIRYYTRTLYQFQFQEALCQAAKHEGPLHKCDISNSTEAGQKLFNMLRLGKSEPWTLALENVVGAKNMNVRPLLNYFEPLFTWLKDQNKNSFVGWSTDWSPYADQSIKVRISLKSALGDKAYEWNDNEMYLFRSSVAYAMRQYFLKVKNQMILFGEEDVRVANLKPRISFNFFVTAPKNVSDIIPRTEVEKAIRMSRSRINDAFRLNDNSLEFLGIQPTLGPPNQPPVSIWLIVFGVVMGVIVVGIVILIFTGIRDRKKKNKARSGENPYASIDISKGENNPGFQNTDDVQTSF

Staphylococcus aureus = assay: Antibacterial activity against Staphylococcus aureus ATCC 29213 assessed as inhibition of bacterial growth incubated for 18 hrs by Kirby-Bauer disk diffusion method; format: functional
Bacillus subtilis = assay: Antibacterial activity against Bacillus subtilis ATCC 6633 assessed as inhibition of bacterial growth incubated for 18 hrs by Kirby-Bauer disk diffusion method; format: functional
Escherichia coli = assay: Antibacterial activity against Escherichia coli ATCC 35218 assessed as inhibition of bacterial growth incubated for 18 hrs by Kirby-Bauer disk diffusion method; format: functional
Pseudomonas aeruginosa = assay: Antibacterial activity against Pseudomonas aeruginosa ATCC 27853 assessed as inhibition of bacterial growth incubated for 18 hrs by Kirby-Bauer disk diffusion method; format: functional
MCF7 = assay: Cytotoxicity against human MCF7 cells assessed as reduction in cell viability by MTT assay; format: functional, cell-based
A549 = assay: Cytotoxicity against human A549 cells assessed as reduction in cell viability by MTT assay; format: functional, cell-based
HCT-116 = assay: Cytotoxicity against human HCT-116 cells assessed as reduction in cell viability by MTT assay; format: functional, cell-based
HepG2 = assay: Cytotoxicity against human HepG2 cells assessed as reduction in cell viability by MTT assay; format: functional, cell-based

Structure (SMILES)	Activity [1]	Activity [2]	inhibition [3]	MIC (Staphylococcus aureus) [µM]	MIC (Bacillus subtilis) [µM]	MIC (Escherichia coli) [µM]	MIC (Pseudomonas aeruginosa) [µM]	IC50 (MCF7) [µM]	IC50 (A549) [µM]	IC50 (HCT-116) [µM]	IC50 (HepG2) [µM]
COc1cccc2c1C(=O)c1c(O)c3c(c(O)c1C2=O)C[C@@](O)(C(=O)CO)C[C@@H]3O[C@H]1C[C@H](N)[C@H](O)[C@H](C)O1 [DOXORUBICIN]	–	–	–	–	–	–	–	–	0.9	1.1	1.3
CC(=O)N(O)CCCCCNC(=O)CCC(=O)N(O)CCCCCNC(=O)CCC(=O)N(O)CCCCCN	Active	–	–	–	–	–	–	–	–	–	–
CCCCCCCCCCCCCCC(=O)N[C@@H](CCCN(O)C=O)C(=O)N[C@@H](CO)C(=O)N(O)CCC[C@@H]1NC(=O)[C@H](CCCN(O)C=O)NC1=O	–	–	inactive	> 100	> 100	> 100	> 100	5.9	3.3	4.8	4.3
CC(C)CCCCCCCCCCC(=O)N[C@@H](CCCN(O)C=O)C(=O)N[C@@H](CO)C(=O)N(O)CCC[C@@H]1NC(=O)[C@H](CCCN(O)C=O)NC1=O	Active	–	inactive	> 100	> 100	> 100	> 100	> 20	14	> 20	> 20
CCCCCCCCCCCC(=O)N[C@@H](CCCN(O)C=O)C(=O)N[C@@H](CO)C(=O)N(O)CCC[C@@H]1NC(=O)[C@H](CCCN(O)C=O)NC1=O	Active	–	inactive	> 100	> 100	> 100	> 100	17	11	11	> 20

Further lines, with some results ahead:

Activity [1]	Activity [2]	inhibition [3]	MIC (Staphylococcus aureus) [µM]	MIC (Bacillus subtilis) [µM]	MIC (Escherichia coli) [µM]	MIC (Pseudomonas aeruginosa) [µM]	Structure (SMILES)	IC50 (MCF7) [µM]	IC50 (A549) [µM]	IC50 (HCT-116) [µM]	IC50 (HepG2) [µM]
Active	Active	inactive	> 100	> 100	> 100	> 100	CC(C)CCCCCCCCCC(=O)N[C@@H](CCCN(O)C=O)C(=O)N[C@@H](CO)C(=O)N(O)CCC[C@@H]1NC(=O)[C@H](CCCN(O)C=O)NC1=O	> 20	> 20	> 20	7.7
Active	–	inactive	> 100	> 100	> 100	> 100	CC(C)CCCCCCCCCCCC(=O)N[C@@H](CCCN(O)C=O)C(=O)N[C@@H](CO)C(=O)N(O)CCC[C@@H]1NC(=O)[C@H](CCCN(O)C=O)NC1=O	> 20	8.1	> 20	2.3
Active	–	inactive	> 100	> 100	> 100	> 100	CCCCCCCCCCCCC(=O)N[C@@H](CCCN(O)C=O)C(=O)N[C@@H](CO)C(=O)N(O)CCC[C@@H]1NC(=O)[C@H](CCCN(O)C=O)NC1=O	> 20	3.4	10	10
–	–	inactive	> 100	> 100	> 100	> 100	CCCCCCCCCCCCCC(=O)N[C@@H](CCCN(O)C=O)C(=O)N[C@@H](CO)C(=O)N(O)CCC[C@@H]1NC(=O)[C@H](CCCN(O)C=O)NC1=O	> 20	> 20	> 20	> 20
–	–	inactive	> 100	> 100	> 100	> 100	CC(C)CCCCCCCCC(=O)N[C@@H](CCCN(O)C=O)C(=O)N[C@@H](CO)C(=O)N(O)CCC[C@@H]1NC(=O)[C@H](CCCN(O)C=O)NC1=O	> 20	13	9.7	> 20
